According to patent US20020082254A1, “Compounds for treating disorders where a decreased level of plasma FFA is desired” (priority 2000, published 2002):
Like-named read-outs stand apart in the source and are kept apart here.

Assays:
[1] = biological target: T1, Hormone-sensitive lipase (HSL) (Homo sapiens, UniProt Q05469); test: Hormone-sensitive lipase (HSL) inhibition assay, 3H-labeled triolein or MOME substrate; type: biochemical
T1 sequence (Q05469 1-1076): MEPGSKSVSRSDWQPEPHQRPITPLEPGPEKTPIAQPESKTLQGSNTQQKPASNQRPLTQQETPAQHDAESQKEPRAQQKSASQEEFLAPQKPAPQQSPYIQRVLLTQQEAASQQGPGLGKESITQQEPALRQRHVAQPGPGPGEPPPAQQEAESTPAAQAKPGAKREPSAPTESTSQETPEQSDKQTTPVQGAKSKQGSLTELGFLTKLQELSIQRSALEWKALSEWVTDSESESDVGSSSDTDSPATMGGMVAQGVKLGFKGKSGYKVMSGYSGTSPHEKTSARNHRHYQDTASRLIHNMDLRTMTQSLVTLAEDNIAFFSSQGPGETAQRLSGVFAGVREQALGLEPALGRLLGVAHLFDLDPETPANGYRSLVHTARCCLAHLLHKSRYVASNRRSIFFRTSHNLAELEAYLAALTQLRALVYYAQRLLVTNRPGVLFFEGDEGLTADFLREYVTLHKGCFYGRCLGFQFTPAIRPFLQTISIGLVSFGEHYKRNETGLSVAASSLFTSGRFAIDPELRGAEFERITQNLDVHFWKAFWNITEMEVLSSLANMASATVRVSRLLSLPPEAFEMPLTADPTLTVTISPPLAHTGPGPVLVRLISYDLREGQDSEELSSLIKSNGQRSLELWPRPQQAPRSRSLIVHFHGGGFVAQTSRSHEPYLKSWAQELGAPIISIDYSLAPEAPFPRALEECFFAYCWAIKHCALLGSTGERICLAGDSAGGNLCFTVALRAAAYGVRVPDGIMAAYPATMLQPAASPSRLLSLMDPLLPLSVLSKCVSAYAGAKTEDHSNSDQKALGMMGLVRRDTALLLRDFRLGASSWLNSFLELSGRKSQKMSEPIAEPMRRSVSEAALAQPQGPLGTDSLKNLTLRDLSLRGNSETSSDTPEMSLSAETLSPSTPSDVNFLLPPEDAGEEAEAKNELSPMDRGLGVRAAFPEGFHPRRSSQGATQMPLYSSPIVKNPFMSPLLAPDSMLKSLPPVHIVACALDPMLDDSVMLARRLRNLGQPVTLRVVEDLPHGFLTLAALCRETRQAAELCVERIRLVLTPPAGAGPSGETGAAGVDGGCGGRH
Excerpt: Hormone-sensitive lipase (HSL) [classified as a triacylglycerol lipase, EC 3.1.1.3, in accordance with the Recommendations of the Nomenclature Committee of the International Union of Biochemistry and Molecular Biology (available on the World Wide Web at the following address: http://www.chem.qmw.ac.uk/iubmb/enzyme/)]
Materials. The Hormone-sensitive lipase employed was provided by Dr. Cecilia Holm of Lund University, Sweden, or produced and purified by Novo Nordisk (NN) using the reagents and protocols employed by Dr. Holm. The substrates used are: ^3H-labeled triolein (TO) from Amersham, Buckinghamshire, U.K. cat No. TRA191; 5-20 Ci/mmol dissolved in toluene, triolein (Sigma, Cat. No. T-1740) and mono-oleoyl-2-O-mono-oleylglycerol (MOME) synthesized at (NN) using the protocols provided by Dr. Cecilia Holm, Lund University, Sweden. Phosphatidyl choline (PC) and phosphatidyl inositol (PI) are from Sigma (St Luis Mo., cat. Nos. P-3556 and P-5954, respectively). All other reagents are of commercial grade and obtained from various commercial sources.
Methods. The preparation of the substrates is as follows:
TO: 30 μl PC:PI (20 mg/ml solution of PC:PI 3:1 prepared in chloroform)+128 μl cold TO+15 μl ^3H-TO
MOME: 30 μl PC:PI+100 μl cold MOME+200 μl ^3H-MOME
They are then evaporated under a gentle stream of N2 followed by 20-30 minutes in a Speedvac™ apparatus to ensure the absence of residual solvent.
The samples are prepared as follows:
Samples/controls: 78 μl PED-BSA+20 μl inhibitor (various concentrations)+2 μl HSL (undiluted 0.12 mg/ml). If no inhibitors are being tested, the reaction contains 98 μl PED-BSA+2 μl HSL.
The samples are put on ice and then sonicated as follows:
With TO as substrate, add 2 ml potassium buffer (0.1M potassium phosphate, pH 7) and then sonicate twice for 1 minute, with a 1-minute interval between cycles. Add an additional 1 ml potassium buffer and sonicate 4 times for 30 seconds, with a 30 second interval in between cycles. To finish, add 1 ml BSA 20%-in potassium buffer, mix by inversion and store on ice until use.
With MOME as substrate: add 2 ml potassium buffer and then sonicate twice for 1 minute, with a 1 minute interval between cycles. Add 1.6 ml potassium buffer and sonicate 4 times for 30 seconds, with a 30-second interval between cycles. To finish, add 0.4 ml BSA 20%-buffer, mix by inversion and store on ice until use.
The enzyme reaction is run at 37° C. The substrate mix is added to the various reactions at 10 second intervals, incubated for 30 minutes in a water bath and then stopped with 3.25 ml of a solution containing CH3OH:CHCl3:heptane (10:9:7). After the addition of 1.05 ml potassium buffer pH10.5, the sample is vortexed thoroughly and centrifuged for 20 min at 2000 r.p.m. One ml of the upper phase is added to 10 ml scintillation fluid, and mixed thoroughly by shaking.
The samples are then counted, 5 min per vial, in a scintillation counter.

[2] = biological target: T2, Lipoprotein lipase (LPL) (Bos taurus, UniProt P11151); test: Lipoprotein lipase (LPL) inhibition assay, 3H-triolein/intralipid substrate; type: biochemical; settings: read-out: LPL inhibition (% inh. at 50 μM)
T2 construct: Dr. Gunilla Olivecrona, Umea University (gift)
T2 sequence (P11151 29-478): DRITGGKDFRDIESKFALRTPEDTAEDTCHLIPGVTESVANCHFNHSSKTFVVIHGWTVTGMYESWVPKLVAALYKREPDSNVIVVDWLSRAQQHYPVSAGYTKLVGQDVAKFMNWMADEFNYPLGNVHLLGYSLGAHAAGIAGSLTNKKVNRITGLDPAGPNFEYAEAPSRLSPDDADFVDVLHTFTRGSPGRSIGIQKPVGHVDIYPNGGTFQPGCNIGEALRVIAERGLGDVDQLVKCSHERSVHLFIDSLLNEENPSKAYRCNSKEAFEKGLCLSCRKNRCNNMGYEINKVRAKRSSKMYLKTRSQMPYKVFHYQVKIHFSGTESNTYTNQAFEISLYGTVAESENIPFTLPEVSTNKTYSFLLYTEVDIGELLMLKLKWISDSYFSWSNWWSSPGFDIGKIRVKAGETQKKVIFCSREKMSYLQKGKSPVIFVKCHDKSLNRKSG
Excerpt: Lipoprotein Lipase (LPL) [Classified as EC 3.1.1.34 in accordance with the Recommendations of the Nomenclature Committee of the International Union of Biochemistry and Molecular Biology (available on the World Wide Web at the following address: http://www.chem.qmw.ac.uk/iubmb/enzyme/)]
Materials. The lipoprotein lipase employed was obtained from Dr. Gunilla Olivecrona of Umea University, Sweden. ^3H-triolein (TO) from Amersham, Buckinghamshire, U.K., cat No. TRA191; 5-20 Ci/mmol dissolved in toluene. Intralipid is from Kabi-Fresenius). Apo CII was obtained from PMSF-treated plasma from overnight fasted rats. All other reagents are of commercial grade and obtained from various commercial sources.
Methods. The preparation of the substrate is as follows:
25 μl of ^3H-Triolein evaporated under a gentle stream of N2 in a 27° C. room in 4 ml chromacol glass followed by the addition of 1 ml 10% intralipid. This is mixed and sonicated on ice for 5 minutes (50% pulse mode). This can be kept for 1 week at 4° C.
100 μl assay medium (0.3M Tris-Cl, 0.2M NaCl, 0.2 mg heparin/ml and 120 mg BSA/ml (fraction V, Sigma no. 3401, pH 8.5))
All mixed in a 13×100 mm glass tube and incubated for at least 5 minutes.
2. Add 5 μl LPL (of a solution containing 500 mU/mg)
Mix and incubate for 30 minutes at 25° C.
3. The reaction is stopped with 3.25 ml of a solution containing Methanol:chloroform:heptan 10:9:7. Add 1.05 ml buffer (100 mM Boric acid, 100 mM potassium carbonate pH 10.5) and mix 10 seconds per vial.
5. Take 1 ml of the upper phase+10 ml scintillation fluid and mix
6. Scintillation count for 5 minutes per vial.

[3] = read-out: HSL inhibition (IC50)

Row | Structure (SMILES) | IC50 [1, 3] | inhibition at 50 µM [2] | IC50 [1]
1 | CN(C)CCc1ccc(OC(=O)NN2CCc3ccccc3C2)cc1 [Example 34] | > 10000 nM | – | –
2 | CCc1ccc(OC(=O)NN2CCc3ccccc3C2)cc1 [Example 28] | 70 nM | 3% | –
3 | CC1c2ccccc2CCN1NC(=O)Oc1ccc(Cl)cc1 (stereo not shown) [Example 22, (1-Methyl-3,4-dihydro-1H-isoquinolin-2-yl)-carbamic Acid 4chloro-phenyl Ester] | 30 nM | 10% | –
4 | O=C(NN1CCc2ccccc2C1)Oc1ccc(C(F)(F)F)cc1 [Example 13, (3,4-Dihydro-1H-isoquinolin-2-yl)-carbamic Acid 4-trifluoromethyl-phenyl Ester] | 45 nM | 3% | –
5 | Cc1ccccc1OC(=O)NN1CCc2ccccc2C1 [Example 9, (3,4-Dihydro-1H-isoquinolin-2-yl)-carbamic Acid o-tolyl Ester] | 1600 nM | 7% | –
6 | CCC(C)c1ccc(OC(=O)NN2CCc3ccccc3C2)cc1 (stereo not shown) [Example 33] | 170 nM | 2% | –
7 | Cc1ccc(OC(=O)NN2CCc3ccccc3C2)cc1 [Example 8, (3,4-Dihydro-1H-isoquinolin-2-yl)-carbamic Acid p-tolyl Ester] | 30 nM | 1% | –
8 | COc1cc2c(cc1OC)CN(NC(=O)Oc1ccc(Cl)cc1)CC2 [Example 16, (6,7-Dimethoxy-3.4-dihydro-1H-isoquinolin-2-yl)-carbamic Acid 4-chloro-phenyl Ester] | 1400 nM | 0% | –
9 | CC(=O)Nc1ccc(OC(=O)NN2CCc3ccccc3C2)cc1 [Example 25] | > 10000 nM | – | –
10 | O=C(NN1CCc2ccccc2C1)Oc1ccc(C(=O)c2ccccc2)cc1 [Example 41] | > 10000 nM | – | –
11 | CCCCCOc1ccc(OC(=O)NN2CCc3ccccc3C2)cc1 [Example 37] | 3900 nM | 0% | –
12 | CCOC(=O)c1ccc(OC(=O)NN2CCc3ccccc3C2)cc1 [Example 35] | > 10000 nM | 0% | –
13 | COC(=O)Cc1ccc(OC(=O)NN2CCc3ccccc3C2)cc1 [Example 42] | 40 nM | 6% | –
14 | CCC(=O)c1ccc(OC(=O)NN2CCc3ccccc3C2)cc1 [Example 24] | > 10000 nM | – | –
15 | O=C(NN1CCc2ccccc2C1)Oc1ccc(C(=O)CCCCl)cc1 [Example 44] | > 10000 nM | – | –
16 | CCCc1ccc(OC(=O)NN2CCc3ccccc3C2)cc1 [Example 20, (3,4-Dihydro-1H-isoquinolin-2-yl)-carbamic Acid 4-propyl-phenyl Ester] | 240 nM | 4% | –
17 | O=C(NN1CCCCC1)Oc1ccc(Cl)cc1 [Example 48, Piperidin-1-yl-carbamic Acid 4-chloro-phenyl Ester] | – | – | 50 nM
18 | CCCOc1ccc(OC(=O)NN2CCc3ccccc3C2)cc1 [Example 39] | 2500 nM | 2% | –
19 | O=C(NN1CCc2ccccc2C1)Oc1ccc(Oc2ccccc2)cc1 [Example 38] | 330 nM | 0% | –
20 | O=C(NN1CCc2ccccc2C1)Oc1ccc(Br)cc1 [Example 5, (3,4-Dihydro-1H-isoquinolin-2-yl)-carbamic acid 4-bromo-phenyl Ester] | 39 nM | 7% | –
21 | CC(C)(C)c1ccc(OC(=O)NN2CCc3ccccc3C2)cc1 [Example 32] | > 10000 nM | 0% | –
22 | Cc1ccc(C(=O)c2ccc(OC(=O)NN3CCc4ccccc4C3)cc2)cc1 [Example 26] | > 10000 nM | – | –
23 | O=C(NN1CCc2ccccc2C1)Oc1ccccc1F [Example 15, (3,4-Dihydro-1H-isoquinolin-2-yl)-carbamic Acid 2-fluoro-phenyl Ester] | 1500 nM | 0% | –
24 | CCCCOc1ccc(OC(=O)NN2CCc3ccccc3C2)cc1 [Example 30] | 3800 nM | 6% | –
25 | S=C(NN1CCc2ccccc2C1)Sc1ccccc1 [Example 50, (3,4-Dihydro-1H-isoquinolin-2-yl)-dithiocarbamic Acid Phenyl Ester] | > 10000 nM | – | –
26 | CC(=O)c1ccc(OC(=O)NN2CCc3ccccc3C2)cc1 [Example 45] | > 10000 nM | – | –
27 | O=C(NN1CCc2ccccc2C1)Oc1ccc(-c2ccccc2)cc1 [Example 36] | > 10000 nM | – | –
28 | O=C(NN1CCc2ccccc2C1)Oc1ccc(Cl)c(C(F)(F)F)c1 [Example 47] | > 10000 nM | – | –
29 | O=C(NN1CCOCC1)Oc1ccc(Cl)cc1 [Example 49, Morpholin-4-yl-carbamic Acid 4-chloro-phenyl Ester] | – | – | 100 nM
